# Data published in patent US20250101023A1, “HETEROARYL DERIVATIVE AND USES THEREOF” (IUCF-HYU (INDUSTRY-UNIVERSITY COOPERATION FOUNDATION …, priority 2022, published 2025).
# Where two headings read alike, the source gives them in different places.
# Legend:
# HCC1954 cells = test: Breast cancer growth inhibitory activity (Cell-titer Glo, 72 h); format: cell-based; settings: Homo sapiens
# Protocol: (§1) Breast cancer cells in a culture solution (100 μL volume/well, 2,500 SK-Br3 cells/well, 1,000 HCC-1954 cells/well) were seeded into a tissue culture-treated 96-well plate and cultured in a cell incubator for 24 hours. […] Cell-titer Glo™ reagent (50 μL of a 5-fold diluted solution, Promega) was added to each well, and luminescence signals were measured using an Envision™ plate reader (PerkinElmer, USA). Titration curve fitting and IC50 values were generated using Prism 7.0 s/w (GraphPad, San Diego, USA).
# SK-Br3 cells = test: as above; format: cell-based; settings: Homo sapiens, SK-BR-3
# Protocol: as §1
# [1] = Body weight in SK-Br3 xenograft model; format: in vivo, mouse; settings: 20 mg/kg, i.p. twice a week
# Protocol: A mouse efficacy experiment was conducted after obtaining approval from the Laboratory Animal Ethics Committee of GenNBio (Review No.: GN-IACUC-Research 22-02-07). SK-Br3 and HCC-1954 cells (1×10^6 cells each) mixed with Matrigel (BD Biosciences) were […] injected into 5-week-old female Balb/c nude mice (Orient Bio, Seongnam, Republic of Korea). After tumors reached a size of about 100 mm^3, the compound, trastuzumab (20 mg/kg), and the like were intraperitoneally injected into mice (n=8 per group)(vehicle: 8% DMSO, 4% Tween-80, 88% PBS). The tumor size was measured twice weekly for about 4 weeks and calculated as follows. Volume (mm^3)=(a×b^2)/2; “a”, maximum diameter; “b”, vertical diameter
# CDK12/CyclinK = CDK12/CyclinK (Homo sapiens (Human), UniProt Q9NYV4); test: CDK12/cyclinK enzyme activity; format: biochemical; settings: in vitro
# [2] = Liver microsomal metabolic stability; format: in vitro ADME; settings: for Liver microsomal metabolic stability (% remaining amount) Dog: dog liver microsomes; for Liver microsomal metabolic stability (% remaining amount) Human: human liver microsomes; for Liver microsomal metabolic stability (% remaining amount) Mouse: mouse liver microsomes
# Protocol: (§2) 5 derivatives were evaluated for in vitro metabolic stability in liver microsomes from three different species (human, dog, mouse) and for inhibitory activity against 5 representative cytochrome P450 enzymes (CYPs)(Table 3). In terms of liver microsomal stability, the 2′-pyridyl group is more suitable than the α-methyl-4′-pyridyl group as the terminal aromatic group at position 6, and the aminopyrimidyl group is better than the aminopyridyl group as a substituent at position 2.
# CYP1A2 = CYP1A2 (Homo sapiens (Human), UniProt P05177); test: in vitro; format: in vitro ADME
# Protocol: as §2
# CYP2C19 = CYP2C19 (Homo sapiens (Human), UniProt P33261); test: CYP inhibitory activity; format: in vitro ADME; settings: read-out: CYP % activity at 10 μM concentration 2C19
# Protocol: as §2
# CYP2C9 = CYP2C9 (Homo sapiens (Human), UniProt P11712); test: CYP inhibitory activity; format: in vitro ADME; settings: read-out: CYP % activity at 10 μM concentration 2C9
# Protocol: as §2
# CYP2D6 = CYP2D6 (Homo sapiens (Human), UniProt P10635); test: CYP inhibitory activity; format: in vitro ADME; settings: read-out: CYP % activity at 10 μM concentration 2D6
# Protocol: as §2
# CYP3A4 = CYP3A4 (Homo sapiens (Human), UniProt P08684); test: CYP inhibitory activity; format: in vitro ADME; settings: read-out: CYP % activity at 10 μM concentration 3A4
# Protocol: as §2
# [3] = tested on: Pol II CTD (Ser2) phosphorylation; test: Western blot, Pol II CTD Ser2 phosphorylation; format: cell-based; settings: 2 hours
# cyclinK = test: Western blot, cyclinK degradation; format: cell-based; settings: 2 hours
# IRS1 and WNT1 = test: Western blot, CDK12 downstream gene expression; format: cell-based; settings: SK-Br3 and HCC1954 cell lines, 40 and 200 nM, 24 hours
# [4] = 72 hours, read-out: HCC1954 (GI50/μM)
# [5] = 72 hours, read-out: SK-Br3 (GI50/μM)
# [6] = SK-Br3 and HCC1954 cell lines, 40 and 200 nM
# [7] = SK-Br3 and HCC1954 cell lines, 40 and 200 nM, listed as Compound 54
# CYP2D6, sequence (P10635 whole entry): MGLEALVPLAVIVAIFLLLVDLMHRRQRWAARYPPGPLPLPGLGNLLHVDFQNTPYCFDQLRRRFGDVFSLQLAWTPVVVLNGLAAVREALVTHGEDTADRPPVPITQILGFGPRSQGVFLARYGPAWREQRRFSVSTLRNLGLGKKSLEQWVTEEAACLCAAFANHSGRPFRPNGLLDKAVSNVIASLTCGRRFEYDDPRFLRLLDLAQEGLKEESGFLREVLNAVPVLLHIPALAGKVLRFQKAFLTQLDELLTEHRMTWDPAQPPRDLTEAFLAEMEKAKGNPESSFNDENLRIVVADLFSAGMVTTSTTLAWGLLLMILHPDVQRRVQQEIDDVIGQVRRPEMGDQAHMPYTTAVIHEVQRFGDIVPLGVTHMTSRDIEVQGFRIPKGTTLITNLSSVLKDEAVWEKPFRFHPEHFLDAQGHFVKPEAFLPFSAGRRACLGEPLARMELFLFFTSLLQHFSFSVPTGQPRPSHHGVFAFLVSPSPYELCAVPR
# CYP3A4, sequence (P08684 whole entry): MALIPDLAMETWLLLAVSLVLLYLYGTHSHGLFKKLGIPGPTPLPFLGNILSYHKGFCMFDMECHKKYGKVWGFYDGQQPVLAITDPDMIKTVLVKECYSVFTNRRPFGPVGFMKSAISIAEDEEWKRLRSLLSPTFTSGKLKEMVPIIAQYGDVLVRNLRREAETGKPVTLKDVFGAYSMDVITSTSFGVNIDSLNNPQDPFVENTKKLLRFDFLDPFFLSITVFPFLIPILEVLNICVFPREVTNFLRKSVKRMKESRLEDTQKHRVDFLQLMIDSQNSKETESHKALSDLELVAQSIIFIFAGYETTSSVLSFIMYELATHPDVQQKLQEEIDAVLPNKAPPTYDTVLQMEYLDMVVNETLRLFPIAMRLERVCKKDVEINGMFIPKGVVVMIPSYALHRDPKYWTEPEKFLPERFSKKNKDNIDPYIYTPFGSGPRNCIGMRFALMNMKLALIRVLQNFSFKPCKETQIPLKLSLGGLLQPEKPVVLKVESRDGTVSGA
# CYP1A2, sequence (P05177 whole entry): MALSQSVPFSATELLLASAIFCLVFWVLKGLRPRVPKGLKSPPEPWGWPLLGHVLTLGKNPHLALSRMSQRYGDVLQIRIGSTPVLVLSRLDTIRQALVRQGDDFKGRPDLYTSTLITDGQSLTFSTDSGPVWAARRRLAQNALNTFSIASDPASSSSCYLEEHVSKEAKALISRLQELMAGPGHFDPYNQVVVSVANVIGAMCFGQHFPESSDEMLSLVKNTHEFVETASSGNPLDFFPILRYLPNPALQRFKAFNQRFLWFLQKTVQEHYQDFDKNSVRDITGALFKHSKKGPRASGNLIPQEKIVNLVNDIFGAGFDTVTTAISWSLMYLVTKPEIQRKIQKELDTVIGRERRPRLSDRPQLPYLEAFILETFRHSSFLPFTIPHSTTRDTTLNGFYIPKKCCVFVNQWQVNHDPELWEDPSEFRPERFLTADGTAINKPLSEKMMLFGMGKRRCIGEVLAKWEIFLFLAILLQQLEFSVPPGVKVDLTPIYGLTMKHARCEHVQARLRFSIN
# CYP2C9, sequence (P11712 whole entry): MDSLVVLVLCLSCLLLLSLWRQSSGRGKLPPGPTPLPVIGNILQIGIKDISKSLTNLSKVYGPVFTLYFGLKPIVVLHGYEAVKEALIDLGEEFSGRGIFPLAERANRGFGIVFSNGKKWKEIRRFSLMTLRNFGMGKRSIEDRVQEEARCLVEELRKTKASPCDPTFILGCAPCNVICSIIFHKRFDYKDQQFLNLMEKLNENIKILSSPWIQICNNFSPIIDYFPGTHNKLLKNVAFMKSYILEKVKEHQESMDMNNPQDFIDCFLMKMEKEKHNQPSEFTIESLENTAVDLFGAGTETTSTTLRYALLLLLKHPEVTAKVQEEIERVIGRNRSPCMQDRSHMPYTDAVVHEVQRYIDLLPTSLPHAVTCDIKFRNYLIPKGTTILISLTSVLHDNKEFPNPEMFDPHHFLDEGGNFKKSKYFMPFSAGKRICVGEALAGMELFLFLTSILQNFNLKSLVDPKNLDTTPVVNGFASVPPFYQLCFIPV
# CDK12/CyclinK, sequence (Q9NYV4 whole entry): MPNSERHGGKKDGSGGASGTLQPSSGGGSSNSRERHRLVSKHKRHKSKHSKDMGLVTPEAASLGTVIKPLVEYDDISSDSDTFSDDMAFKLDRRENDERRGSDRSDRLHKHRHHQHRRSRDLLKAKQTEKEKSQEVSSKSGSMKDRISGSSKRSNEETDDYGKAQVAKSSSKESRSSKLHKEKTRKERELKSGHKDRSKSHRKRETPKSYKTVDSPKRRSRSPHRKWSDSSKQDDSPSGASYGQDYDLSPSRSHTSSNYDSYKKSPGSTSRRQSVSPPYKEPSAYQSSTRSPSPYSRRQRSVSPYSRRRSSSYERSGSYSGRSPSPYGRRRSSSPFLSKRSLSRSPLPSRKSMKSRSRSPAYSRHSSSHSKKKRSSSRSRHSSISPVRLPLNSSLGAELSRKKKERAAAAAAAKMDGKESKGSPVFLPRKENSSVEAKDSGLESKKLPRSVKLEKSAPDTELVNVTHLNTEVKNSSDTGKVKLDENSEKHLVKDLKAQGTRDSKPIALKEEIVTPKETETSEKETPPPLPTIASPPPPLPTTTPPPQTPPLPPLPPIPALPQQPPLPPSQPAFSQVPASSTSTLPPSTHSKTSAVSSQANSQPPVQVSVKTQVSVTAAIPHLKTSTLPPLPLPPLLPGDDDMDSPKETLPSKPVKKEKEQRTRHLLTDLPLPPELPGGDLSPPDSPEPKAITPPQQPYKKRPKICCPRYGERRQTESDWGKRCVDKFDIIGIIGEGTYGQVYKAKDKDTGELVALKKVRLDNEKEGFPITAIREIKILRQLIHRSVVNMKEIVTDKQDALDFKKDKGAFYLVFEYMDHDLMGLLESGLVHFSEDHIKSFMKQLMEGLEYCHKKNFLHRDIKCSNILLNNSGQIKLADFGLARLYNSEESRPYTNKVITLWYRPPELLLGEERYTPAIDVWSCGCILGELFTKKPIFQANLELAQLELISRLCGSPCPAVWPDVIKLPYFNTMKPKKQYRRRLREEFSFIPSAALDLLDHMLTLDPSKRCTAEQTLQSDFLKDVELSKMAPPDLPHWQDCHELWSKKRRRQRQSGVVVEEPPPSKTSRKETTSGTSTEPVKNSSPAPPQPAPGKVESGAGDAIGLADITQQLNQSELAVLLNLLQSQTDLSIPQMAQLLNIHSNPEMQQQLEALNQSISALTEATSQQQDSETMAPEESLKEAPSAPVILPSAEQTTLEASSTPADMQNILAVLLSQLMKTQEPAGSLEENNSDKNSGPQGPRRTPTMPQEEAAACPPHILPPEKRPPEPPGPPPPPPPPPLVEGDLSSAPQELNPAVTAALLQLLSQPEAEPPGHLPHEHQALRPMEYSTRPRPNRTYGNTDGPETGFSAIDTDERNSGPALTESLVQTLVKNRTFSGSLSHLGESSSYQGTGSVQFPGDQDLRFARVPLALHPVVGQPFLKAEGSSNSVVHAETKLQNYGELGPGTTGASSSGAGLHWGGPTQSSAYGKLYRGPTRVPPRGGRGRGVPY
# CDK12/CyclinK, sequence (O75909 whole entry partner): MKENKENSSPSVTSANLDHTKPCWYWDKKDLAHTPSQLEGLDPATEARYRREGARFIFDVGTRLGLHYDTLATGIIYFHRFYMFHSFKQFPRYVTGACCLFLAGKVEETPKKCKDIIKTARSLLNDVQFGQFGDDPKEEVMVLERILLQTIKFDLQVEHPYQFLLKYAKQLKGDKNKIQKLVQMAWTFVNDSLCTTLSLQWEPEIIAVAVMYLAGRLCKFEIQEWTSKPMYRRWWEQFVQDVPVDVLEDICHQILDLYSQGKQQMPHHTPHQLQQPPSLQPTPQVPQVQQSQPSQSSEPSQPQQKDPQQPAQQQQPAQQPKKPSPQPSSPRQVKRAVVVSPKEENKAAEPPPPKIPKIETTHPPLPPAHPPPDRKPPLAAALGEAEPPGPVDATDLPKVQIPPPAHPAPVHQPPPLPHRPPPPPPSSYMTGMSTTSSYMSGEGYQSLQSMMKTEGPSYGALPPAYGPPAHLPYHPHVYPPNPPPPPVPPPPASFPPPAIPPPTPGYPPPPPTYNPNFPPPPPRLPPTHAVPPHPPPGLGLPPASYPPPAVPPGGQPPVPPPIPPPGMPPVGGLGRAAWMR
# CYP2C19, sequence (P33261 whole entry): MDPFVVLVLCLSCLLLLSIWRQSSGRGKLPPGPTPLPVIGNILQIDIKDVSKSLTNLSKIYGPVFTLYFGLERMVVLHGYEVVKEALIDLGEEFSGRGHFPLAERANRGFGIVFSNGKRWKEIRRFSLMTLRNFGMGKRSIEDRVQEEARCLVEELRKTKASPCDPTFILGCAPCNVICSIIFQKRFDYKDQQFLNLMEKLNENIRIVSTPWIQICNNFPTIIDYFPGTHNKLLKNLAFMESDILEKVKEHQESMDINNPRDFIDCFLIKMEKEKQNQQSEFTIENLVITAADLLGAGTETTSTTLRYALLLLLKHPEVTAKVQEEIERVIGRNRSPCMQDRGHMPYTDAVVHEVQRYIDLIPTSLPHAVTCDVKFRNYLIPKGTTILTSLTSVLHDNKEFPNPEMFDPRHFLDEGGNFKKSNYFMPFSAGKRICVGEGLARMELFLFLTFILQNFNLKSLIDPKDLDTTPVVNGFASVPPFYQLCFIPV
Compound,IC50 (CDK12/CyclinK) [µM],Liver microsomal metabolic stability (% remaining amount) Dog [2] [%],Liver microsomal metabolic stability (% remaining amount) Human [2] [%],Liver microsomal metabolic stability (% remaining amount) Mouse [2] [%],activity at 10 µM (CYP1A2) [%],activity at 10 µM (CYP2C19) [%],activity at 10 µM (CYP2C9) [%],activity at 10 µM (CYP2D6) [%],activity at 10 µM (CYP3A4) [%],GI50 (HCC1954 cells; [4]) [µM],GI50 (SK-Br3 cells; [5]) [µM],further results
"CCc1cnn2c(NCc3ccc[n+]([O-])c3)cc(N3CCCC[C@H]3CCO)nc12 [Dinaciclib, reference compound]",,,,,,,,,,,,GI50 (HCC1954 cells; read-out: HCC1954 GI50): 0.012 µM; GI50 (SK-Br3 cells; read-out: SK-Br3 GI50): 0.012 µM; mouse body weight [1]: toxicity with a decrease in body weight in mice
"CCn1cnc2c(NCc3ccc(-c4ccnc(C)c4)nc3)nc(-c3cnc(N)nc3)nc21 [Example 50, 2-(2-aminopyrimidin-5-yl)-9-ethyl-N-((2′-methyl-[2,4′-bipyridin]-5-yl)methyl)-9H-purin-6-amine]",0.019,53.6,40.6,45.0,74.9,75.4,82.9,85.7,72.4,,,
"CC(C)n1cnc2c(NCc3ccc(-c4cccnc4)cn3)nc(-c3cccnc3)nc21 [Example 2, N-([3,3′-bipyridin]-6-ylmethyl)-9-isopropyl-2-(pyridin-3-yl)-9H-purin-6-amine]",0.582,,,,,,,,,0.659,0.866,"Pol II CTD (Ser2) phosphorylation ([3]; SK-Br3 cell line, 0.2 and 1 μM): inhibited Pol II CTD (Ser2) phosphorylation in a dose-dependent manner; cyclinK degradation (cyclinK; SK-Br3 cell line, 0.2 and 1 μM): induced the degradation of cyclinK"
"CC(C)n1cnc2c(NCc3ccc(-c4ccncc4)cn3)nc(-c3cccnc3)nc21 [Example 4, N-([3,4′-bipyridin]-6-ylmethyl)-9-isopropyl-2-(pyridin-3-yl)-9H-purin-6-amine]",0.627,,,,,,,,,0.888,0.74,"Pol II CTD (Ser2) phosphorylation ([3]; SK-Br3 cell line, 0.2 and 1 μM): inhibited Pol II CTD (Ser2) phosphorylation in a dose-dependent manner; cyclinK degradation (cyclinK; SK-Br3 cell line, 0.2 and 1 μM): induced the degradation of cyclinK"
"CCn1cnc2c(NCc3ccc(-c4ccnc(C)c4)nc3)nc(-c3cncnc3)nc21 [Example 51, 9-ethyl-N-((2′-methyl-[2,4′-bipyridin]-5-yl)methyl)-2-(pyrimidin-5-yl)-9H-purin-6-amine]",0.056,79.5,27.3,34.0,68.6,73.9,67.5,88.8,31.8,0.156,0.192,
"CCn1cnc2c(NCc3ccc(-c4ccccn4)nc3)nc(-c3cnc(N)nc3)nc21 [Example 54, N-([2,2′-bipyridin]-5-ylmethyl)-2-(2-aminopyrimidin-5-yl)-9-ethyl-9H-purin-6-amine]",0.077,67.6,100,85.0,87.6,72.6,81.6,92.1,92.8,,,"Pol II CTD (Ser2) phosphorylation [3, 6]: inhibited Pol II CTD (Ser2) phosphorylation; Pol II CTD (Ser2) phosphorylation [3, 7]: strong dose-dependent suppression of Pol II phosphorylation; cyclinK degradation (cyclinK; [6]): induced cyclinK degradation; cyclinK degradation (cyclinK; [7]): cyclinK levels were greatly suppressed in a dose-dependent manner; expression of IRS1 and WNT1 (IRS1 and WNT1): inhibited the expression of IRS1 and WNT1; expression of IRS1 and WNT1 (IRS1 and WNT1; listed as Compound 54): strongly suppressed"
"CCn1cnc2c(NCc3ccc(-c4ccnc(C)c4)nc3)nc(-c3ccc(N)nc3)nc21 [Example 49, 2-(6-aminopyridin-3-yl)-9-ethyl-N-((2′-methyl-[2,4′-bipyridin]-5-yl)methyl)-9H-purin-6-amine]",0.012,45.1,32.2,35.3,59.3,76.8,73,89.6,38.9,,0.133,
